The record followed here is patent publication US8202696B2, “Means for use in treating diseases correlated with or caused by non-physiological levels of microtubule-associated PP2Ac” (Max-Planck-Gessellschaft zur Forderung der Wissenschaften …, priority 2002, dated 2012).

Where no end group is shown, it is not given here.

For test [1], the target named is T1, MID1/PP2A complex (Homo sapiens, UniProt P78318).
T1 construct: endogenous in cells
T1 sequence (P78318 1-339): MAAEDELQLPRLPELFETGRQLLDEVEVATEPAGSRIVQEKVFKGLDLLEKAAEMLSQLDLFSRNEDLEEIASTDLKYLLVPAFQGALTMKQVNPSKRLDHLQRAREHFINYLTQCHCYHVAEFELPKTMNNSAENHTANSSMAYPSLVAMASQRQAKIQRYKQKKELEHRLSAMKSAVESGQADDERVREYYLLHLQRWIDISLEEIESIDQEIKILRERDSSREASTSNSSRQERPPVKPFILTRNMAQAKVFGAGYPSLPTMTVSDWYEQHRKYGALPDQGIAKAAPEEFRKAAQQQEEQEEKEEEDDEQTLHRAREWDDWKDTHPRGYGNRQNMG
Put plainly: hFused phosphorylation in cells co-expressing hFused and B-Box1, Western blot. The format is cell-based. As for the experimental part:
8×10^5 cells were transfected with hFused-V5 (aa 1-1335) in presence and absence of MYC-B-BOX1 (aa 110-167 of the MID1 protein) using Qiagen polyfect transfection reagent according to the manufacturer's instructions. Cell pellets were resuspended in magic mix (48% urea, 15 mM Tris-HCl, 8.7% glycerin, 1% SDS, 0.004% Bromphenol Blue, 143 mM β-Mercaptoethanol). After sonification, cell lysate of cells expressing hFused and hFused together with B-Box1 was separated on a 6% SDS-gel (200 μg protein loaded in each lane), blotted on PVDF-membranes and incubated with anti-V5-antibody (1:3000). Secondary HRP-antimouse-antibody was diluted 1:2000.
A dominant-negative effect of the B-Box1-peptide leading to an inhibition of […] induced ubiquitination of microtubules-associated PP2A and resulting in a enrichment of microtubules-associated PP2A was shown previously.
Cell lysate of cells expressing only hFused (con) and hFused together with the B-Box1 (+B-Box1) was separated on an SDS-Page, blotted and incubated with an anti-V5-antibody. In order to stop all kinase and phosphatases directly after cell lysis, cells were lysed in an SDS- and urea-containing buffer.

The test system of test [2] is Gli3. Put plainly: Localization of GFP-GLI3 in cultured U373MG cells. It counts as cell-based. Particulars: 24 hours after transfection, 100 cells counted. The protocol:
COS7-HELA- and U373MG-cells were transfected using PolyFect Transfection Reagent (Qiagen, cat. no. 301107) according to the manufacturer's instructions. Gli3 cDNA was cloned into pEGFP-C1 and pEGFP-N3 vectors (Clontech) respectively. 100 transfected cells per experiment (Gli3-GFP, GFP-Gli3, Gli3-GFP+myc-MID1, GFP-Gli3+myc-MID1, Gli3-GFP+myc-BBox1, GFP-Gli3+myc-BBox1) were counted and analysed for Gli3 localization. Experiments were repeated twice. […] PCMV-Tag3 vector from Stratagene was used for myc-MID1 and myc-BBox1 overexpression.

Test [3] relates to patched gene. The test is described as follows: Patched-specific semiquantitative RT-PCR of HeLa cells. It counts as cell-based. Particulars: compared to mock-transfected cells. As for the experimental part: One of the most important targets of the Gli3 transcription factor is the patched gene. In order to analyse HeLa cells for Gli3 activity after treatment with the different molecules, semiquantitative RT-PCR of cells overexpressing the B-Box1 and the α4 protein was carried out (FIG. 13). HeLa cells have previously been tested for Gli3-, Gli1 (another target of the Gli3 transcription factor) and patched-expression.

In test [4] the test system is tau protein. The test is described as follows: Tau-1 and pan-Tau immunofluorescence in transfected postnatal sympathetic neurons. The format is cell-based, rat. Particulars: compared to non-transfected neurons = 100%, two days after transfection. The protocol:
Peripheral sympathetic neurons were obtained from postnatal day 1-3 rats. […] Following mechanical dissociation the cell suspension was filtered through a 40 μm nylon mesh and seeded at 6 SCGs per well into uncoated Falcon dishes for preplating purposes. After 4 hours neurons were transferred into glass floor dishes (Willco Wells B.V., gwst 3522, 3.8 cm^2 area/dish) coated with poly-D-lysine/laminin. Neurons were maintained in RPMI medium containing antibiotics, N2 additive (Invitrogen) and 100 ng/ml nerve growth factor (NGF; Sigma) at 37° C. in a humidified atmosphere with 5% CO2.
Neurons were transfected 2 hours after seeding applying the biolistic approach. This method uses a hand held gun to bombard dissociated neurons at high velocity with micron-size gold particles loaded with DNA. The coating of gold particles with DNA was achieved using a modification of the manufacturer's instructions (Bio-Rad Laboratories). For preparation of 35 cartridges 25 mg gold particles (1.6 μm diameter) were suspended in 50 μl of 0.05 M spermidine. After vortexing and sonication for 5 seconds, 50 μg plasmid DNA dissolved in 50 μl TE buffer was added (for co-transfection experiments, 80 μg were used, i.e., 40 μg Plasmid I+40 μg Plasmid 2). The amount of gold particles and DNA corresponds to a microcarrier loading quantity (MLQ) of about 0.7 (mg/cartridge) and to a DNA loading ratio (DLR) of 2 (μg/mg) for single transfection experiments. DNA, spermidine and gold were then mixed for 5 sec in a variable speed vortexer. At low vortexing speed, 50 μl 1 M CaCl2 was added dropwise to the mixture for association of DNA with the gold particles followed by precipitation for 10 min at room temperature. The supernatant was removed and the pellet rinsed with 800 μl of 100% ethanol. Washing was repeated two times with centrifugation steps at 3000 g between each wash. […]
A fully motorized Zeiss Axiovert 100M microscope equipped for inverted fluorescence was used for visualization of fluorescent neurons. […]

Take “B-Box1: peptide derived from the MID1 domain that is responsible for α4 binding (amino acids 108-165), expressed from plasmid (ANTMTSAEKVLCQFCDQDPAQDAVKTCVTCEVSYCDECLKATHPNKKPFTGHRLIEPI; cysteine pairing not given here; also: myc tag; UniProt O15344 108-165, looked up, fragment)”: the “Ratio between phosphorylated and dephosphorylated hFused-form” value in test [1] (FIG. 15c, control 10.3) worked out at 3; in test [1] (FIG. 16c, reproduction, control 8.3) it was 3. For the same substance, the GFP-GLI3 localization result in test [2] (listed as B-BOX1) is reported as “significant change of GFP-GLI3 from nucleus to cytosol”; in test [2] (listed as BBox1), “significant change from the nucleus to the cytosol”; in test [2] (listed as Bbox1), “significant Bbox1-dependent change of Gli3 localization”. Further, the patched message result in test [3] is “significant reduction of the patched message”. Moreover, the “Tau-1 immunoreactivity (dephosphorylated tau)” value in test [4] (listed as B-BOX1) was “significantly increased”; in test [4] (listed as Bbox1), “pronounced increase in fluorescence”.
